Laboratory results reported in publication PMC3871636 (PLoS ONE, 2013).

Tests used:
[1] = target: T1, double-labeled CYP3A4 C64/C121-DY/ER (Homo sapiens, UniProt P08684, A121C/C239S/C377S/C468A/C98S/S18F); test: Steady-state LRET titration (delayed emission); details: Table S2, protein C64/C121-ER/DY
Experimental: (§1) All absorbance and fluorescence assays (including the time-resolved fluorescence measurements) were performed at a protein concentration ≤1 µM at 25°C with continuous stirring. Absorbance spectra were recorded with an S2000 rapid scanning CCD spectrometer (Ocean Optics). Ligand binding assays were done in 100 mM Na-Hepes buffer, pH 7.4, containing 0.5 mM EDTA.
(§2) Fluorescence-based ligand binding assays were done under anaerobic conditions. Anaerobiosis was achieved using an oxygen-scavenging system consisting of protecatechuate-3,4-dioxygenase (0.5 units/ml) and 5 mM protocatechuic acid. The steady state and time-resolved phosphorescence measurements were performed with the use of a Cary Eclipse fluorescence spectrophotometer (Varian/Agilent Technologies). The excitation wavelength was set to 540 nm. Spectra were taken from 650 to 860 nm with 100 µs delay.
(§3) Quantitative interpretation of LRET results was also based on the use of PCA applied to a series of emission spectra normalized on integral intensity. […] Intensity of the donor and acceptor fluorescence obtained in this way were used in determination of the efficiency of steady-state LRET using the equation [drawing 1] (Eq.1) where I ad is emission intensity of the acceptor, I da is the residual donor emission in the presence of acceptor (I da), Φ a and Φ d are the quantum yield of the fluorescence of acceptor and the quantum yield of the phosphorescence of donor, respectively.
(§4) Distances were calculated using the equation: [drawing 3] (Eq.3) where R 0 is the Förster distance, and R is the distance between the donor and acceptor. R 0 was calculated with the use of PhotoChemCad software. In these calculations, we used the values of the orientation factor (κ^2) and the refractive index (n) of 0.667 and 1.4, respectively.
(§5) When fitting the results of titration experiments, where the changes in the monitored signal A S (fraction of the enzyme in the high-spin state, intensity or the lifetime of the donor phosphorescence at a given substrate concentration) were assumed to be proportional to [ES], this equation was complemented with the offset A 0 and the scaling factor A max to yield the following relationship: [drawing 5] (Eq.5)

[2] = target: double-labeled CYP3A4 C377/C468-DY/ER (Homo sapiens, UniProt P08684, S18F, form not given); test: Steady-state LRET titration (delayed emission); type: binding; details: Table S2, protein C377/C468-ER/DY
Chain of double-labeled CYP3A4 C377/C468-DY/ER (P08684 13-503 S18F, form open): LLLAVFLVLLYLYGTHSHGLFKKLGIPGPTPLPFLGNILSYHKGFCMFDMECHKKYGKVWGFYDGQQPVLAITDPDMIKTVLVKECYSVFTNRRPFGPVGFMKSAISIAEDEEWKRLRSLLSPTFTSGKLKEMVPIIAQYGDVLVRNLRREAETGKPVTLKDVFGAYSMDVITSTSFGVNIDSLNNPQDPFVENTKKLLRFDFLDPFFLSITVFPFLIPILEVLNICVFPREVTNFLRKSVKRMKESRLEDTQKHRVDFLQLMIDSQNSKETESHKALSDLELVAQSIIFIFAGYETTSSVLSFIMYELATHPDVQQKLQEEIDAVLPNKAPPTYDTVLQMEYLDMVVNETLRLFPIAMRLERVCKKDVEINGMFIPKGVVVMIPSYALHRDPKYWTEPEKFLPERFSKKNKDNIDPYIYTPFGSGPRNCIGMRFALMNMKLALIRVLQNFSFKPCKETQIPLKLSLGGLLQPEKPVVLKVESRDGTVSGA
Experimental: as §1, §2, §3, §4, §5

[3] = target: double-labeled CYP3A4 (C64/C468)-DY/ER (Homo sapiens, UniProt P08684, S18F, form not given); test: Steady-state LRET titration (delayed emission); type: binding
Chain of double-labeled CYP3A4 (C64/C468)-DY/ER (P08684 13-503 S18F, form open): as above
Experimental: as §1, §2, §3, §4, §5

[4] = target: CYP3A4 (double-labeled (C64/C468)-DY/ER) (Homo sapiens, UniProt P08684, form not given/S18F); test: Steady-state LRET titration (delayed emission); type: binding; details: human, purified double-labeled CYP3A4 (C64/C468)-DY/ER protein, pH 7.4; (C64/C468)-DY/ER; LRET titration; read-out: K d, steady-state fluorescence
Chain of CYP3A4 (double-labeled (C64/C468)-DY/ER) (P08684 13-503 S18F, form open): as above
Experimental: as §1, §2, §3, §4, §5

[5] = target: T2, double-labeled CYP3A4 (C64/C468)-ER/DY (Homo sapiens, UniProt P08684, S18F, form not given); test: Steady-state LRET titration (delayed emission); type: binding
T2 sequence (P08684 13-503 S18F, form open): as above
Experimental: as §1, §2, §3, §4, §5

[6] = target: T2, double-labeled CYP3A4 (C64/C468)-ER/DY; test: Time-resolved LRET (phosphorescence lifetime measurements)
Source text: The excitation wavelength was set to 540 nm.

[7] = target: CYP3A4 (C64/C468 mutant) (Homo sapiens, UniProt P08684, form not given/S18F); test: Ligand-induced spin shift, absorbance titration; type: binding; details: human, purified CYP3A4(C64/C468) mutant protein, pH 7.4; read-out: K D or S 50
Chain of CYP3A4 (C64/C468 mutant) (P08684 13-503 S18F, form open): as above
Experimental: as §1
(§6) Absorbance spectra obtained in titration experiments were analyzed with a principal component analysis (PCA) procedure complemented with least-square approximation of the principal vectors with a combination of the prototypical spectra of the CYP3A4 low-spin, high-spin and Type II-substrate-bound ferric CYP3A4 P450 states as described, [31].
as §5

[8] = target: CYP3A4 (C377/C468 mutant) (Homo sapiens, UniProt P08684, form not given/S18F); test: Ligand-induced spin shift, absorbance titration; type: binding; details: human, purified CYP3A4(C377/C468) mutant protein, pH 7.4; read-out: K D or S 50
Chain of CYP3A4 (C377/C468 mutant) (P08684 13-503 S18F, form open): as above
Experimental: as §1, §6, §5

[9] = target: T1, double-labeled CYP3A4 C64/C121-DY/ER; test: Time-resolved LRET (phosphorescence lifetime measurements)
Experimental: as §1, §2
The treatment of the time-resolved decay traces was performed using a bi-exponential approximation. The efficiency of time-resolved LRET was calculated using the equation [drawing 2] (Eq.2)
In this equation τda and τd designate the average lifetime of the excited state of the donor in the presence and absence of the acceptor, respectively. These average lifetimes are determined as τ = α1τ1+α2τ2, where τ1,2 and α1,2 stay for the lifetime and the relative amplitude of each of the two exponential terms. In our calculations of the lifetime in double-labeled C64/C468, C377/C468 and C64/C121 proteins we used the lifetimes of phosphorescence measured with the respective proteins labeled with ERIA at a label:protein ratio 2∶1 as the estimates of τd.
as §4

[10] = 1-PB 40 µM, ANF 100 µM, BCT 2.5 µM, cholesterol 100 µM, testosterone 100 µM
[11] = Table S2, C64/C468-DY/ER, same ligand concentrations
[12] = Table S2, C64/C468-ER/DY, 1-PB 40 µM, ANF 100 µM, BCT 2.5 µM, cholesterol 100 µM, testosterone 100 µM
[13] = Table S2, C64/C468-ER/DY, same ligand concentrations
[14] = (C64/C468)-ER/DY, nearly-saturating ligand: ANF 100 µM, bromocriptine 2.5 µM, cholesterol 50 µM, testosterone 100 µM
[15] = Table S1, (C64/C468)-ER/DY, same ligand concentrations
[16] = Table S1, protein (C64/C121)-ER/DY, same ligand concentrations
[17] = Table S2, protein C64/C121-ER/DY, same ligand concentrations

T1 sequence (P08684 with tags, fused parts or gaps S18F/C98S/A121C/C239S/C377S/C468A limits assumed): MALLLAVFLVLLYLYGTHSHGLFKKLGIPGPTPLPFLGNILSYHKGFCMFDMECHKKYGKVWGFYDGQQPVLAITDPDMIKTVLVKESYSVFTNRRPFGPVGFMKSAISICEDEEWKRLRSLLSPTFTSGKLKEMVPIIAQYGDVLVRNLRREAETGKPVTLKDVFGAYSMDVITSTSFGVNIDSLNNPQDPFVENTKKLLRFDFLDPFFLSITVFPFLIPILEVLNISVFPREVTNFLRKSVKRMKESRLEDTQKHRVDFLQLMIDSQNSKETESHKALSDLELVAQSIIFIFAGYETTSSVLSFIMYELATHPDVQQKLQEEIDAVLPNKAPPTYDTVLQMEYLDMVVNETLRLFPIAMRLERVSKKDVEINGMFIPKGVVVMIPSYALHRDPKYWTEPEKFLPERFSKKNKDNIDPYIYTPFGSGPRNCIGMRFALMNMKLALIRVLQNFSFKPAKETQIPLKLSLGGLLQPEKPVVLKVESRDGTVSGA

OCCCCc1ccc2ccc3cccc4ccc1c2c34 [1-PB, 1-pyrenebutanol]
E (LRET efficiency with ligand), steady-state measurements [1, 10]: 18 ± 1% | R (interprobe distance with ligand), steady-state measurements ([1]; same ligand concentrations): 43.4 ± 0.7 Å | ΔR, steady-state measurements ([1]; same ligand concentrations): 0.8 ± 0.7 Å | E (LRET efficiency with ligand), steady-state measurements [2, 10]: 16± 1% | R (interprobe distance with ligand), steady-state measurements ([2]; same ligand concentrations): 44.5 ± 0.7 Å | ΔR, steady-state measurements ([2]; same ligand concentrations): −0.2 ± 0.7 Å | ΔR (change in interprobe distance), steady-state fluorescence ([3]; (C64/C468)-DY/ER): 0.9±1.8 Å | ΔE (change in LRET efficiency), steady-state fluorescence ([3]; (C64/C468)-DY/ER, from maximal relative change in donor intensity): −4±1% | E (LRET efficiency with ligand), steady-state measurements ([3]; Table S2, C64/C468-DY/ER, 1-PB 40 µM, ANF 100 µM, BCT 2.5 µM, cholesterol 100 µM, testosterone 100 µM): 41 ± 1% | R (interprobe distance with ligand), steady-state measurements [3, 11]: 35.8 ± 1.8 Å | ΔR, steady-state measurements [3, 11]: 0.9 ± 1.8 Å | Kd [4]: 22.2 ± 4 µM | ΔR (change in interprobe distance), steady-state fluorescence ([5]; (C64/C468)-ER/DY): −0.3±0.8 Å | ΔE (change in LRET efficiency), steady-state fluorescence ([5]; (C64/C468)-ER/DY, from maximal relative change in donor intensity): 1±1% | E (LRET efficiency with ligand), steady-state measurements [5, 12]: 30 ± 1% | R (interprobe distance with ligand), steady-state measurements [5, 13]: 38.8 ± 0.8 Å | ΔR, steady-state measurements [5, 13]: −0.3 ± 0.8 Å | ΔELT (change in LRET efficiency), lifetime measurements [6, 14]: −1.5±1% | ΔR (change in interprobe distance), lifetime measurements [6, 14]: 0.4±0.1 Å | τ1 (phosphorescence decay time with ligand) ([6]; Table S1, (C64/C468)-ER/DY, 1-PB 40 µM, ANF 100 µM, BCT 2.5 µM, cholesterol 100 µM, testosterone 100 µM, bi-exponential fit): 63 ± 2 µs | F1 (fraction of first exponential) [6, 15]: 60 ± 8% | τ2 (phosphorescence decay time with ligand) [6, 15]: 241 ± 5 µs | τav (average phosphorescence lifetime with ligand) [6, 15]: 138 ± 4 µs | E (LRET efficiency with ligand), lifetime measurements [6, 12]: 41 ± 1% | R (interprobe distance with ligand), lifetime measurements [6, 13]: 36.7 ± 0.1 Å | ΔR, lifetime measurements [6, 13]: 0.4 ± 0.1 Å | Kd [7]: 5.7 ± 1.7 µM | Kd [8]: 14 ± 2 µM | τ1 (phosphorescence decay time with ligand) ([9]; Table S1, protein (C64/C121)-ER/DY, 1-PB 40 µM, ANF 100 µM, BCT 2.5 µM, cholesterol 100 µM, testosterone 100 µM, bi-exponential fit): 57 ± 1 µs | F1 (fraction of first exponential) [9, 16]: 35 ± 1% | τ2 (phosphorescence decay time with ligand) [9, 16]: 199 ± 12 µs | τav (average phosphorescence lifetime with ligand) [9, 16]: 149 ± 9 µs | E (LRET efficiency with ligand), lifetime measurements ([9]; Table S2, protein C64/C121-ER/DY, 1-PB 40 µM, ANF 100 µM, BCT 2.5 µM, cholesterol 100 µM, testosterone 100 µM): 46 ± 5% | R (interprobe distance with ligand), lifetime measurements [9, 17]: 35.4 ± 0.8 Å | ΔR, lifetime measurements [9, 17]: 0.4 ± 0.8 Å
